The record followed here is patent US20170334891A1, “ENHANCER OF ZESTE HOMOLOG 2 INHIBITORS” (GLAXOSMITHKLINE INTELLECTUAL PROPERTY (NO.2) LIMITED, priority 2014, published 2017).

pIC50: −log10 of the molar value.

By pIC50 is commonly meant −log10 of the IC50, conventionally taken in molar units. A lower pIC50 goes with a large IC50.

In the assay the target is T1, EZH2 within the PRC2 complex (Homo sapiens, UniProt Q15910).
T1 construct: FLAG; made in house; host or cells: Sf9 cells
T1 sequence (Q15910 whole entry): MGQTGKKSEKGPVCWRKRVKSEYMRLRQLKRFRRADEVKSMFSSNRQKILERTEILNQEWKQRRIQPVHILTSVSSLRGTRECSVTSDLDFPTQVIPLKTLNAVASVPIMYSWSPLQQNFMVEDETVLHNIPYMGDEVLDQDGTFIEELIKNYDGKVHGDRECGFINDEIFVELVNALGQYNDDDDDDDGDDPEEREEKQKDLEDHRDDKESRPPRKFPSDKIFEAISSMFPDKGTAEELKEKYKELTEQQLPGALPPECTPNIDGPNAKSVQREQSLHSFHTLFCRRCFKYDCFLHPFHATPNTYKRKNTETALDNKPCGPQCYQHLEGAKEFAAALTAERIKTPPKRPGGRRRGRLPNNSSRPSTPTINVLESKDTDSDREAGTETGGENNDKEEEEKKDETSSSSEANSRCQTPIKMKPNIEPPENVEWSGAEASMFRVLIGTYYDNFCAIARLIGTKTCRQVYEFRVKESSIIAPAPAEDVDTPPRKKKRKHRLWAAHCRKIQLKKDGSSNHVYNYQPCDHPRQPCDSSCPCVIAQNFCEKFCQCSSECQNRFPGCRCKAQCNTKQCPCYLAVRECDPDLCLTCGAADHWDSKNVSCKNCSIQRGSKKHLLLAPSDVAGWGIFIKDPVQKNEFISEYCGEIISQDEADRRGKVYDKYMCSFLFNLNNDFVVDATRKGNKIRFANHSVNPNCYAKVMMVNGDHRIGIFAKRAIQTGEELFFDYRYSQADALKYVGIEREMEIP
T1 sequence (O75530 whole entry partner): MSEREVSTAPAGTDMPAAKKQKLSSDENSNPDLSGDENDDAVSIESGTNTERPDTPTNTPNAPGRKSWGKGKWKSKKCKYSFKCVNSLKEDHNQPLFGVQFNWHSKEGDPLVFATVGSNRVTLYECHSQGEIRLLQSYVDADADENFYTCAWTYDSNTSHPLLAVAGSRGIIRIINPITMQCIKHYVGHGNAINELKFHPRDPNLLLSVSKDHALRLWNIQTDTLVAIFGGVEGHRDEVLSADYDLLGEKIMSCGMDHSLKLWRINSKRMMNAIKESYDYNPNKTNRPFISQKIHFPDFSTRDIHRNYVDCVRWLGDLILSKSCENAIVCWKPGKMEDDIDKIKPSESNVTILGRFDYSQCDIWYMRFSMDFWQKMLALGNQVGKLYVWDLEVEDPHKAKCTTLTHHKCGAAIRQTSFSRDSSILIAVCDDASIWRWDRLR
T1 sequence (Q15022 whole entry partner): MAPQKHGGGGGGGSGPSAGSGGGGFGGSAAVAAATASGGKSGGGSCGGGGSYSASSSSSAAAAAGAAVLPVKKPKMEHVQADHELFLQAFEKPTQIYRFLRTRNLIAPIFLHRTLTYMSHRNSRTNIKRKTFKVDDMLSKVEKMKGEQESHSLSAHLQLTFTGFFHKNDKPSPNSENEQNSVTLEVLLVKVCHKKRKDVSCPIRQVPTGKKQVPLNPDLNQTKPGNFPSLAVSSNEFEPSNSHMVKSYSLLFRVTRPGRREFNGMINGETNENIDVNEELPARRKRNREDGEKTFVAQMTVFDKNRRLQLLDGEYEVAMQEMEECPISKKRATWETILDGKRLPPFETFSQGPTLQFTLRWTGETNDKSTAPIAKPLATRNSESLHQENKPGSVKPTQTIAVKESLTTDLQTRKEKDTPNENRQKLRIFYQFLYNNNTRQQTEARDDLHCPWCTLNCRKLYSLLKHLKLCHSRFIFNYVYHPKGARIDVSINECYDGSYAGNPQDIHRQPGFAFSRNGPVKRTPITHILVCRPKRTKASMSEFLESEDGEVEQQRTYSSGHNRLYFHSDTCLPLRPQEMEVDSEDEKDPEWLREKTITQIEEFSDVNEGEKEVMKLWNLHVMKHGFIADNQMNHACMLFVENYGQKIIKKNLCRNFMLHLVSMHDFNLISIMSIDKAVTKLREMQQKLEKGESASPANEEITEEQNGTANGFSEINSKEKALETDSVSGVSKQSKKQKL
T1 sequence (Q09028 whole entry partner): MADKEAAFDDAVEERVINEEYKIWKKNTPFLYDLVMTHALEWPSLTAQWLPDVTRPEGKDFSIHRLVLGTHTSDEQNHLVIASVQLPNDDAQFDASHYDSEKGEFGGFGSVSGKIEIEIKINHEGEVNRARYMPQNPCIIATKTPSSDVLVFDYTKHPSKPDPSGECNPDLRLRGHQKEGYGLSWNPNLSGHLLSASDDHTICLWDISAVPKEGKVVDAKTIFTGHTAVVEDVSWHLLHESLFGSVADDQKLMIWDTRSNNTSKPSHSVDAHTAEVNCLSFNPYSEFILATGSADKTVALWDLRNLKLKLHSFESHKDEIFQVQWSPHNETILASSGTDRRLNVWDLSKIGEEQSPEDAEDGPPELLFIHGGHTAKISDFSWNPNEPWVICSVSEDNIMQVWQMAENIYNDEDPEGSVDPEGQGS
T1 sequence (Q6ZN18 whole entry partner): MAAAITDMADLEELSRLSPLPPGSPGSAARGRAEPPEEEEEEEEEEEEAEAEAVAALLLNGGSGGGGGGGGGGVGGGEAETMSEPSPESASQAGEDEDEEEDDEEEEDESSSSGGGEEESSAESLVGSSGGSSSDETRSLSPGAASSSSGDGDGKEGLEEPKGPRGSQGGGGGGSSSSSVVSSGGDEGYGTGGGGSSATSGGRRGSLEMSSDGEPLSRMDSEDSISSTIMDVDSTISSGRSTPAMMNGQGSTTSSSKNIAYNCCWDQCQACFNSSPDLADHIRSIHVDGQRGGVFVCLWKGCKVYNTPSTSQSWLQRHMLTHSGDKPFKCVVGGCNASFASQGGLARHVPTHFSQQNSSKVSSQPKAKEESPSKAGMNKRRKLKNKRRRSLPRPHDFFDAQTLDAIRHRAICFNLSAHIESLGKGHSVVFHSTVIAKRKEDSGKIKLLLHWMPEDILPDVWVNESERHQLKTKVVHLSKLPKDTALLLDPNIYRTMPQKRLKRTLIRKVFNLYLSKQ
In words: EZH2 methyltransferase scintillation proximity assay (SPA). The format is biochemical. Conditions: Human PRC2 5 member complex (FLAG-EZH2, EED, SUZ12, RbAp48, AEBP2), 1 nM enzyme, biotinylated histone H3K27 peptide, 3H-SAM, 60 min at room temperature. How it is done: Compounds contained herein were evaluated for their ability to inhibit the methyltransferase activity of EZH2 within the PRC2 complex. Human PRC2 complex was prepared by co-expressing each of the 5 member proteins (FLAG-EZH2, EED, SUZ12, RbAp48, AEBP2) in Sf9 cells followed by co-purification. Enzyme activity was measured in a scintillation proximity assay (SPA) where a tritiated methyl group is transferred from 3H-SAM to a lysine residue on a biotinylated, unmethylated peptide substrate derived from histone H3. The peptides were captured on streptavidin-coated SPA beads and the resulting signal was read on a ViewLux plate reader.
• 1. Prepare 10 mM stock of compounds from solid in 100% DMSO. • 2. Set up an 11-point serial dilution (1:4 dilution, top concentration 10 mM) in 100% DMSO for each test compound in a 384 well plate leaving columns 6 and 18 for DMSO controls. • 3. Dispense 10 nL of compound from the dilution plate into reaction plates (Corning, 384-well polystyrene NBS, Cat#3673).
Prepare the following solutions: • 1. 1× Base Buffer, 50 mM Tris-HCl, pH 8, 2 mM MgCl2: Per 1 L of base buffer, combine 1 M Tris-HCl, pH 8 (50 mL), 1 M MgCl2 (2 mL), and distilled water (948 mL). • 2. 1× Assay Buffer: Per 10 mL of 1× Assay Buffer, combine 1× Base Buffer (9.96 mL), 1 M DTT (40 uL), and 10% Tween-20 (1 uL) to provide a final concentration of 50 mM Tris-HCl, pH 8, 2 mM MgCl2, 4 mM DTT, 0.001% Tween-20. • 3. 2× Enzyme Solution: Per 10 mL of 2× Enzyme Solution, combine 1× Assay Buffer (9.99 mL) and 3.24 uM EZH2 5 member complex (6.17 uL) to provide a final enzyme concentration of 1 nM. • 4. SPA Bead Solution: Per 1 mL of SPA Bead Solution, combine Streptavidin coated SPA beads (PerkinElmer, Cat# RPNQ0261, 40 mg) and 1× Assay Buffer (1 mL) to provide a working concentration of 40 mg/mL. • 5. 2× Substrate Solution: Per 10 mL of 2× Substrate Solution, combine 40 mg/mL SPA Bead Solution (375 uL), 1 mM biotinylated histone H3K27 peptide (200 uL), 12.5 uM 3H-SAM (240 uL; 1 mCi/mL), 1 mM cold SAM (57 uL), and 1× Assay Buffer (9.13 mL) to provide a final concentration of 0.75 mg/mL SPA Bead Solution, 10 uM biotinylated histone H3K27 peptide, 0.15 uM 3H-SAM (˜12 uCi/mL 3H-SAM), and 2.85 uM cold SAM. • 6. 2.67× Quench Solution: Per 10 mL of 2.67× Quench Solution, combine 1× Assay Buffer (9.73 mL) and 10 mM cold SAM (267 uL) to provide a final concentration of 100 uM cold SAM.
• 1. Stamp 10 nL/well of 1000× Compound to test wells (as noted above). • 2. Stamp 10 nL/well of 100% DMSO to columns 6 & 18 (high and low controls, respectively).
• 1. Dispense 5 uL/well of 1× Assay Buffer to column 18 (low control reactions). • 2. Dispense 5 uL/well of 2× Substrate Solution to columns 1-24 (note: substrate solution should be mixed to ensure homogeneous bead suspension before dispensing into matrix reservoir). • 3. Dispense 5 uL/well of 2× Enzyme Solution to columns 1-17, 19-24. • 4. Incubate the reaction for 60 min at room temperature.
• 1. Dispense 6 uL/well of the 2.67× Quench Solution to columns 1-24. • 2. Seal assay plates and spin for ˜1 min at 500 rpm. • 3. Dark adapt plates in the ViewLux instrument for 15-60 min.
• 1. Read the assay plates on the Viewlux Plate Reader utilizing the 613 nm emission filter or clear filter (300 s exposure). Reagent addition can be done manually or with automated liquid handler.
Percent inhibition was calculated relative to the DMSO control for each compound concentration and the resulting values were fit using standard IC50 fitting parameters within the ABASE data fitting software package.
The IC50 values of <10 nM indicate that the activity of compound was approaching the limit of detection in the assay. Repeating the assay run(s) may result in somewhat different IC50 values.
In general terms: SPA uses beads or plates that emit light when radiolabelled molecules are held near them.
Turning to `CCC(=C1CCN(CC(F)F)CC1)c1scc(C(=O)NCc2c(C)cc(C)[nH]c2=O)c1C` [Example 20, 5-(1-(1-(2,2-Difluoroethyl)piperidin-4-ylidene)propyl)-N-((4,6-dimethyl-2-oxo-1,2-dihydropyridin-3-yl)methyl)-4-methylthiophene-3-carboxamide], the pIC50 was not below 8.00.
In the case of `CC[C@@H](c1scc(C(=O)NCc2c(C)cc(C)[nH]c2=O)c1C)C1CCN(CC(F)F)CC1` [Example 21, (R)-5-(1-(1-(2,2-Difluoroethyl)piperidin-4-yl)propyl)-N-((4,6-dimethyl-2-oxo-1,2-dihydropyridin-3-yl)methyl)-4-methylthiophene-3-carboxamide] it was not below 8.00.
The figure for `Cc1cc(C)c(CNC(=O)c2csc([C@H](C)C3CCN(CC(F)F)CC3)c2C)c(=O)[nH]1` [Example 22, (R)-5-(1-(1-(2,2-Difluoroethyl)piperidin-4-yl)ethyl)-N-((4,6-dimethyl-2-oxo-1,2-dihydropyridin-3-yl)methyl)-4-methylthiophene-3-carboxamide] is not below 8.00; for `Cc1cc(C)c(CNC(=O)c2csc([C@H](C)C3CCN(CC(C)(F)F)CC3)c2C)c(=O)[nH]1` [Example 23, (R)-5-(1-(1-(2,2-Difluoropropyl)piperidin-4-yl)ethyl)-N-((4,6-dimethyl-2-oxo-1,2-dihydropyridin-3-yl)methyl)-4-methylthiophene-3-carboxamide] it is not below 8.00.
